Measured values: patent US20080182898A1, “Treatment of metabolic syndrome with norfluoxetine” (AMPLA Pharmaceuticals Inc., priority 2007, published 2008)

These molecules were tested against CB1 receptor (Homo sapiens, UniProt P21554) (assay: functional activity versus the CB1 receptor). Conditions: qualitative statement, no method or numbers given.
CB1 receptor, sequence (P21554 whole entry): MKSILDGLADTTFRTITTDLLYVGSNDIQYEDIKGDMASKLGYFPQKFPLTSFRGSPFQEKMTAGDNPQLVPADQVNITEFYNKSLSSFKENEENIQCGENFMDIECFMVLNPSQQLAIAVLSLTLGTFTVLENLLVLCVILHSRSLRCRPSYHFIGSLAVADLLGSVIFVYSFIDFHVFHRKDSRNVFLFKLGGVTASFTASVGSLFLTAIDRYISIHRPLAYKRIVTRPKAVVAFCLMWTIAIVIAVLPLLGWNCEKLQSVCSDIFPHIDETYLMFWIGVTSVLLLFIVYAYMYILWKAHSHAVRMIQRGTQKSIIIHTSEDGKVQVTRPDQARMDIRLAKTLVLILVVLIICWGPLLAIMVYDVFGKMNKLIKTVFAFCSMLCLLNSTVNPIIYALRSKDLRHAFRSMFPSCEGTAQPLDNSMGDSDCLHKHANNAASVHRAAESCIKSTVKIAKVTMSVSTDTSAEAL
With NCCC(Oc1ccc(C(F)(F)F)cc1)c1ccccc1 (racemic) [racemate of norfluoxetine, 3-(4-trifluoromethylphenoxy)3-phenylpropylamine] the “functional activity versus the CB1 receptor (mode of action)” value was “antagonist”.
With CNCC[C@@H](Oc1ccc(C(F)(F)F)cc1)c1ccccc1 [(R)-fluoxetine] the “functional activity versus the CB1 receptor (mode of action)” value was “antagonist”.
CNCC[C@H](Oc1ccc(C(F)(F)F)cc1)c1ccccc1 [(S)-Fluoxetine] was tested, and the “functional activity versus the CB1 receptor (mode of action)” value was “inverse agonist”.
